Experimental data: PubChem BioAssay (NCI)
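Briefly, cells in 96-well plates were exposed to five compound concentrations for 48 h, and endpoints were estimated by linear interpolation. The concentration for 50% growth inhibition is given as GI50. At the TGI there is no net growth.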

How the values were obtained:
Experiment in all cases: NCI-60 cell line screen, 48 h
DU-145 prostate = test system: DU-145 prostate
HS 578T breast = test system: HS 578T breast
MDA-MB-231 breast = test system: MDA-MB-231 breast
MDA-MB-435 = test system: MDA-MB-435
PC-3 prostate = test system: PC-3 prostate
T-47D breast = test system: T-47D breast

| SMILES | GI50 (DU-145 prostate) [µM] | TGI (DU-145 prostate) [µM] | GI50 (HS 578T breast) [µM] | TGI (HS 578T breast) [µM] | GI50 (MDA-MB-231 breast) [µM] | TGI (MDA-MB-231 breast) [µM] | GI50 (MDA-MB-435) [µM] | TGI (MDA-MB-435) [µM] | GI50 (PC-3 prostate) [µM] | TGI (PC-3 prostate) [µM] | GI50 (T-47D breast) [µM] | TGI (T-47D breast) [µM] |
| --- | --- | --- | --- | --- | --- | --- | --- | --- | --- | --- | --- | --- |
| Oc1ccc(Cc2ccc(O)c3ncccc23)c2cccnc12 | 0.0564 | > 100 | 0.0365 | > 100 | 0.0487 | > 100 | 0.0383 | > 100 | 0.0583 | 53.2 | 0.15 | 0.704 |
| C[C@]12CCC3[C@@H](C[C@@H]4SC(Nc5ccccc5)=N[C@@]45CC(=O)CC[C@]35C)[C@@H]1CCC2=O (stereo partly specified) | 4.34 | 40.9 | 12 | > 100 | 13.4 | > 100 | 3.48 | > 100 | 5.52 | 63.7 | 3.5 | > 100 |
| O=Cc1c(-c2cc(O)ccc2O)nc2sccn12 | 22.6 | 49.2 | 35.7 | > 100 | 12 | 31.4 | 15.6 | 34.2 | 11.9 | 38.3 | 12.3 | > 100 |
| CC(=O)O[C@H]1C(=O)[C@@]2(C)C(C(OC(=O)c3ccccc3)[C@]3(O)CC(OC(=O)[C@H](OC(=O)CCC(=O)O)C(NC(=O)c4ccccc4)c4ccccc4)C(C)=C1C3(C)C)C1(OC(C)=O)COC1C[C@@H]2OC(=O)CCC(=O)O (stereo partly specified) |  |  |  |  |  |  | 0.189 | 0.495 |  | > 100 |  | > 100 |
| O=C(O)c1ccc2c(c1)Cc1cc([N+](=O)[O-])ccc1-2 |  | > 100 |  | > 100 |  | > 100 |  | > 100 |  |  |  | > 100 |
| O=C1CCC(Cc2ccc(Cl)cc2Cl)C(=O)N1 (stereo unspecified) |  | > 100 |  | > 100 |  | > 100 |  | > 100 |  | > 100 |  | > 100 |
| Nc1ccccc1C#C/C=C\C#Cc1ccccc1C(F)(F)F | 2.7 | 14.7 | 1.26 | 25.2 | 0.274 | 2.73 | 0.355 | 1.3 | 4.41 | 45.1 | 19.4 | 61.2 |
| O=c1cc(C(F)(F)F)c2cc3c(cc2o1)NCCC3 |  | > 100 |  | 61.9 |  | > 100 |  | > 100 |  | > 100 |  | > 100 |
| CCOP(=O)(OCC)C(NC(c1ccccc1)c1ccccc1)c1ccccc1 (stereo unspecified) | 15 | 30 | 1.89 | 13.5 | 10.6 | 26.3 | 1.36 | 8.89 | 12 | 27.1 | 42.6 | 99 |
| C=C1C(=O)O[C@H]2[C@H]1CC/C(COC(=O)NCc1cc3ccccc3[nH]1)=C\CC[C@@]1(C)O[C@@H]21 | 1.52 | 2.93 | 2.8 | 15.6 | 1.65 | 3.57 | 1.75 | 3.48 | 1.63 | 3.46 | 1.8 | 4.33 |
| CC[C@]1(O)CC2CN(CCc3c([nH]c4ccccc34)[C@@](C(=O)OC)(c3cc4c(cc3OC)N(C)[C@H]3[C@@](O)(C(=O)OC)[C@H](OC(C)=O)[C@]5(CC)C=CCN6CC[C@]43[C@@H]65)C2)C1 (stereo partly specified) | < 0.005 | 0.0282 | < 0.005 | 10.2 | < 0.005 | 0.417 | < 0.005 | < 0.005 | < 0.005 | 12.3 |  |  |
| CC1=C(/C=C/C(C)=C\C=C\C(C)=C\C(=O)Nc2ccc3c(c2)OCO3)C(C)(C)CCC1 | > 100 | > 100 | > 100 | > 100 | > 100 | > 100 | 16.7 | > 100 | 41.2 | > 100 | 25.4 | > 100 |
| CC(=O)OC[C@H]1O[C@@H](n2ccc(=O)[nH]c2=O)[C@H](OC(C)=O)[C@@H]1OC(C)=O | > 100 | > 100 | > 100 | > 100 | > 100 | > 100 | > 100 | > 100 | > 100 | > 100 | > 100 | > 100 |
| CC1=C([Se]CC(OC(=O)CC[Se]c2ccccc2)C(=O)NCCCCCC(=O)OCc2ccccc2)C(=O)c2ccccc2C1=O (stereo unspecified) | 3.64 | 11.4 | 2.47 | 34.2 | 1.95 | 4.94 | 2.45 | 7.45 | 2.26 | 12.4 | 2.2 | 8.21 |
| CCN(Cc1cccc(OC)c1)c1ccc(CO)c(Cl)c1 | 21.1 | 67.5 | 18.3 | 61.9 | 14.9 | 44 | 16.6 | 35.6 | 19.8 | 74.3 | 0.165 | 1.83 |
